{
  "source": "patent US9732053B2",
  "about": "“1-[2-(2,4-dimethylphenylsulfanyl) phenyl]piperazine acetate in crystalline form” (LEK PHARMACEUTICALS D.D., priority 2013, dated 2017)",
  "key": {"[1]": {"conditions": "room temperature; data from WO 2007/144005 A1 and WO 2010/121621 A1; cited from earlier work"}, "[2]": {"experiment": "Gravimetric moisture sorption/desorption cycle", "format": "physicochemical", "conditions": "for Δm (0-80% RH), water absorption: 25° C.; for Structural changes during moisture sorption: sorption desorption cycle, XRPD", "description": "Moisture sorption isotherms were recorded with an SPSx-1μ moisture sorption analyzer (ProUmid, Ulm). The measurement cycle was started at 3% relative humidity (RH). Then the RH was increased from 5% to 75%, decreased to 0% and increased to 80% in 5% steps. Finally the RH was decreased to 0% in 10% steps and equilibrated in a last step to 35%. The time per step was set to a minimum of 1 hour and a maximum of 3 hours. If an equilibrium condition with a constant mass of ±0.01% within 1 hour was reached before the maximum time for all examined samples, the sequential humidity step was applied before the maximum time of 3 hours. If no equilibrium was achieved, the consecutive humidity step was applied after the maximum time of 3 hours. The temperature was 25±0.1° C. The final water content was determined by coulometric Karl Fischer titration.\nCoulometric Karl Fischer titration was performed with a Metrohm 831 KF Coulometer equipped with a double-platinum detecting electrode, a Metrohm 832 KF Thermoprep oven (130° C.) and Hydranal Coulomat AK as Karl Fischer reagent."}, "[3]": {"experiment": "Slurry experiments in n-heptane for thermodynamic stability (Examples 12-13)", "format": "physicochemical", "conditions": "room temperature", "description": "Slurry experiments were performed to determine the order of the thermodynamic stability of the solid state forms at room temperature (see also Examples 12-13 of the present invention).\n35 mg of vortioxetine acetate form Ill was suspended in 0.5 mL n-heptane and stirred with a magnetic stirrer at room temperature for 4 weeks.\n25 mg of vortioxetine acetate form I was suspended in 0.5 mL n-heptane and stirred with a magnetic stirrer at room temperature for 24 h."}, "[4]": {"experiment": "Water solubility determination of vortioxetine acetate form III (Example 9)", "format": "physicochemical", "description": "100 μL water was added to 100.34 mg of vortioxetine acetate form Ill. The mixture was vigorously shaken for 2 min and placed at 25° C. for 15 min. The solid was not completely dissolved, therefore a further 100 μL of water was added and the dissolving procedure repeated. […] According to […]"}, "[5]": {"experiment": "Stress tests at increased relative humidity with XRPD analysis (Examples 10-11)", "format": "physicochemical", "description": "X-ray powder diffractograms (XRPD) were obtained with an X'Pert PRO diffractometer (PANalytical, Almelo, The Netherlands) equipped with a theta/theta coupled goniometer in transmission geometry, programmable XYZ stage with well plate holder, Cu-Kα1,2 radiation source (wavelength 0.15419 nm) and a solid state PIX'cel detector. The diffractograms were recorded at a tube voltage of 45 kV, tube current of 40 mA applying a step size of 0.013° 2-theta with 40 s per step (255 channels) in the angular range of 2° to 40° 2-theta at ambient conditions. A typical precision of the 2-theta values is in the range of about ±0.2° 2-theta. Thus a diffraction peak that appears at 5.0° 2-theta can appear between 4.8 and 5.2° 2-theta on most X-ray diffractometers under standard conditions.\n42 mg of vortioxetine acetate form Ill was stressed at 40° C./75% RH for 4 weeks.\n34 mg of vortioxetine acetate form Ill were stressed at RT/97% RH for 4 weeks."}, "[6]": {"conditions": "listed as acetate form I, acetate"}, "[7]": {"conditions": "listed as acetate form III, acetate"}},
  "note": "Structures can show the parent of a compound that is named as a salt.",
  "data": [
    {"molecule": "CC(O)C(=O)O.Cc1ccc(Sc2ccccc2N2CCNCC2)c(C)c1", "note": "[DL-lactate form β]", "values": [
      {"measurement": "Aqueous solubility", "setting": "[1]", "result": 8, "unit": "mg base/mL"}
    ]},
    {"molecule": "Br.Cc1ccc(Sc2ccccc2N2CCNCC2)c(C)c1", "note": "[HBr form α]", "values": [
      {"measurement": "Aqueous solubility", "setting": "[1]", "result": 2, "unit": "mg base/mL"}
    ]},
    {"molecule": "Br.Cc1ccc(Sc2ccccc2N2CCNCC2)c(C)c1", "note": "[HBr form β]", "values": [
      {"measurement": "Aqueous solubility", "setting": "[1]", "result": 1.2, "unit": "mg base/mL"}
    ]},
    {"molecule": "Cc1ccc(Sc2ccccc2N2CCNCC2)c(C)c1", "note": "[HCl MH]", "values": [
      {"measurement": "Aqueous solubility", "setting": "[1]", "result": 2, "unit": "mg base/mL"}
    ]},
    {"molecule": "Cc1ccc(Sc2ccccc2N2CCNCC2)c(C)c1.Cl", "note": "[HCl]", "values": [
      {"measurement": "Aqueous solubility", "setting": "[1]", "result": 3, "unit": "mg base/mL"}
    ]},
    {"molecule": "CC(O)C(=O)O.Cc1ccc(Sc2ccccc2N2CCNCC2)c(C)c1", "note": "[L-lactate form MH2]", "values": [
      {"measurement": "Aqueous solubility", "setting": "[1]", "result": 26, "unit": "mg base/mL"}
    ]},
    {"molecule": "Cc1ccc(Sc2ccccc2N2CCNCC2)c(C)c1", "note": "[free base, 1-[2-(2,4-Dimethylphenylsulfanyl)phenyl]piperazine]", "values": [
      {"measurement": "Aqueous solubility", "setting": "[1]", "result": 0.1, "unit": "mg base/mL"}
    ]},
    {"molecule": "CC(=O)O.Cc1ccc(Sc2ccccc2N2CCNCC2)c(C)c1", "note": "[vortioxetine acetate form I, 1-[2-(2,4-dimethylphenylsulfanyl)phenyl]piperazine acetate]", "values": [
      {"measurement": "Δm (0-80% RH), water absorption", "setting": "[2]; [6]", "result": "+2%"},
      {"measurement": "Δm (0-80% RH), water absorption", "setting": "[2]; listed as form I, acetate", "result": 2, "unit": "%"},
      {"measurement": "Structural changes during moisture sorption", "setting": "[2]; [6]", "result": "partial decomposition to free base"},
      {"measurement": "Structural changes during moisture sorption", "setting": "[2]; listed as form I, acetate", "result": "partial decomposition of the acetate salt to the free base"},
      {"measurement": "Structural changes after slurry (XRPD)", "setting": "[3]; stirred 24 h, acetate", "result": "transformed to form III"},
      {"measurement": "Structural changes after slurry (XRPD)", "setting": "[3]; stirred 24 h, listed as Form I of vortioxetine acetate", "result": "undergoes a transition to form III"}
    ]},
    {"molecule": "CC(=O)O.Cc1ccc(Sc2ccccc2N2CCNCC2)c(C)c1", "note": "[vortioxetine acetate form III, 1-[2-(2,4-dimethylphenylsulfanyl)phenyl]piperazine acetate]", "values": [
      {"measurement": "Aqueous solubility calculated as free base", "setting": "[4]; 25° C. / room temperature, converted from acetate salt by Equation 1", "result": 278, "unit": "mg base/mL"},
      {"measurement": "solubility", "setting": "[4]; thermodynamic from solid, 25° C., 100.34 mg dissolved in 300 μL, read-out: Solubility of the acetate salt in water", "result": 334, "unit": "mg/mL"},
      {"measurement": "Δm (0-80% RH), water absorption", "setting": "[2]; [7]", "result": "+0.4%^"},
      {"measurement": "Hygroscopicity according to European Pharmacopoeia", "setting": "[2]; gravimetric moisture sorption desorption curve, FIG. 6", "result": "only slightly hygroscopic"},
      {"measurement": "Water content", "setting": "[2]; relative humidity of about 0%", "result": "about 0.3%"},
      {"measurement": "Water content", "setting": "[2]; relative humidity of about 80%, acetate", "result": "less than 0.7%"},
      {"measurement": "Water content", "setting": "[2]; relative humidity of about 80%, listed as form III of vortioxetine acetate, acetate", "result": "about 0.7%"},
      {"measurement": "Structural changes during moisture sorption", "setting": "[2]; [7]", "result": "no changes from 0-97% RH"},
      {"measurement": "Structural changes after stress (XRPD)", "setting": "[5]; 40° C./75% RH for 4 weeks", "result": "no structural changes"},
      {"measurement": "Structural changes after stress (XRPD)", "setting": "[5]; RT/97% RH for 4 weeks", "result": "no structural changes"},
      {"measurement": "Structural changes after slurry (XRPD)", "setting": "[3]; stirred 4 weeks, acetate", "result": "does not undergo any transformation"},
      {"measurement": "Structural changes after slurry (XRPD)", "setting": "[3]; stirred 4 weeks, listed as vortioxetine acetate form Ill", "result": "no structural changes"}
    ]},
    {"molecule": "fumarate", "values": [
      {"measurement": "Aqueous solubility", "setting": "[1]", "result": 0.4, "unit": "mg base/mL"}
    ]},
    {"molecule": "maleate", "values": [
      {"measurement": "Aqueous solubility", "setting": "[1]", "result": "≈1 mg base/mL"}
    ]},
    {"molecule": "phosphate", "values": [
      {"measurement": "Aqueous solubility", "setting": "[1]", "result": "≈1 mg base/mL"}
    ]}
  ]
}
